Results: patent US6410585B1, “Inhibitors of protein tyrosine phosphatase” (priority 1997, dated 2002)
Values joined by “and” are separate entries in the source; they are usually repeats but may differ in a detail not shown here. Equal values may be shown once. Read-outs that look alike come from different tables or passages of the source.

Target: T1, rat PTP1 (Rattus norvegicus, UniProt P20417)
T1 construct: a C-terminal truncation of rat PTP1 (amino acid residues 1-322); GST (N, cleaved yes); made in house; host or cells: E. coli strain TG-1 (pGEX-2T)
T1 sequence (P20417 1-322): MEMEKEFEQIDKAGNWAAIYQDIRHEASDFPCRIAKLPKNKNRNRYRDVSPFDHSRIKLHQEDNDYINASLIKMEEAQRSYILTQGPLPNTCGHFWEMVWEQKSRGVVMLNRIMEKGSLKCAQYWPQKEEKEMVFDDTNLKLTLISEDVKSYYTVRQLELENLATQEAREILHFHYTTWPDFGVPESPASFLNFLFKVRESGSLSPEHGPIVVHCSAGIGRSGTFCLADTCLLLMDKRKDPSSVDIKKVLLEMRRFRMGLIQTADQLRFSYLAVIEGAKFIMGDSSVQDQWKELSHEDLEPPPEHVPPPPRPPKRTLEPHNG
Test: PTP1 assay, pNPP hydrolysis (rate of change in A405)
Assay type: biochemical
Excerpt: PTP1 Assays: A construct, which consisted of a C-terminal truncation of rat PTP1 (amino acid residues 1-322) (cloned from a rat brain library) with an N-terminal glutathione S-transferase (GST) tag and an adjacent thrombin cleavage site, was inserted into vector plasmid pGEX-2T and transformed into E. coli strain TG-1 under the control of a lac promoter (K. L. Guan and J. E. Dixon (1991) Eukaryotic proteins expressed in Escherichia coli: an improved thrombin cleavage and purification procedure of fusion proteins with glutathione S-transferase. Analyt. Biochem. 192: 262-267). The GST-fusion protein was purified on a glutathione agarose affinity column, the GST tag was cleaved with thrombin, and the active enzyme was recovered for use in an assay to identify PTP inhibitors.
PTP1 activity is measured using either p-nitrophenol phosphate (pNPP) or a triphosphopeptide (that matches residues 1142 through 1153 of the β-subunit and the insulin receptor) as substrate in a 96-well microtiter plate format. An assay pH of 7.2 is used for standard assays (measured 405=9800 at pH 7.2).
Standard assays are conducted at room temperature in a total volume of 0.2 ml that contains Hepes buffer (50 mM, pH 7.2), NaCl (50 mM), EDTA (1 mM), DTT (1 mM), bovine serum albumin (1 mg/ml), pNPP (1 mM) and PTP1 (35 ng/ml). Compounds (2 μl of 10 mM solutions) are pipetted into wells of microtiter plates followed by 198 μl of premixed reaction mix (with PTP1 and pNPP added immediately before use). The rate of change in A405 is recorded for 60 min. Two wells on each plate contain DMSO controls and two wells contain sodium orthovanadate (1 mM) which inhibits PTP1-catalyzed hydrolysis of pNPP completely. Data are expressed as percent inhibition relative to the average of the DMSO controls measured on the same microtiter plate.

[1] = inhibition of pNPP-hydrolysis, compound concentration 1 μM, read-out: % Inhibition
[2] = inhibition of pNPP-hydrolysis, compound concentration 10 μM, read-out: % Inhibition
[3] = inhibition of pNPP-hydrolysis, compound concentration 100 μM, read-out: % Inhibition
[4] = Conc 1 uM, pNPP hydrolysis, Table 1, read-out: PTP1 Inhib % Inhib
[5] = Conc 10 uM, pNPP hydrolysis, Table 1, read-out: PTP1 Inhib % Inhib
[6] = Conc 100 uM, pNPP hydrolysis, Table 1, read-out: PTP1 Inhib % Inhib
[7] = Conc 1 uM, pNPP hydrolysis, Table 2, read-out: PTP1 Inhib PTP1N. % Inhib
[8] = Conc 10 uM, pNPP hydrolysis, Table 2, read-out: PTP1 Inhib PTP1N. % Inhib
[9] = Conc 100 uM, pNPP hydrolysis, Table 2, read-out: PTP1 Inhib PTP1N. % Inhib

## CC(C)(C)OC(=O)N[C@@H](Cc1ccccc1)C(=O)N[C@H](Cc1ccc(OCC(=O)O)c(C(=O)O)c1)C(=O)NCCCN1CCCC1=O [Example 157-12, 5-((2R)-2-({(2S)-2-[(tert-Butoxycarbonyl)amino]-3-phenylpropanoyl}amino)-3-oxo-3-{[3-(2-oxo-1-pyrrolidinyl)propyl]amino}propyl)-2-(carboxymethoxy)benzoic Acid]
[1]
  inhibition at 1 µM: 27%
[2]
  inhibition at 10 µM: 76%
[3]
  inhibition at 100 µM: 95%

## CC(C)CCNC(=O)[C@H](Cc1ccc(OC(C(=O)O)C(=O)O)cc1)NC(=O)CCC(=O)O
[4]
  inhibition at 1 µM: 0%
[5]
  inhibition at 10 µM: 6%
[6]
  inhibition at 100 µM: 48%

## CCCCCNC(=O)[C@H](Cc1ccc(OC(C(=O)O)C(=O)O)cc1)NC(=O)C(CC(=O)O)NC(=O)OC(C)(C)C (stereo partly drawn)
[4]
  inhibition at 1 µM: 13%
[5]
  inhibition at 10 µM: 53%
[6]
  inhibition at 100 µM: 90%

## CCCCCNC(=O)[C@H](Cc1ccc(OC(C(=O)O)C(=O)O)cc1)NC(=O)CCCC(=O)O
[4]
  inhibition at 1 µM: 2%
[5]
  inhibition at 10 µM: 17%
[6]
  inhibition at 100 µM: 67%

## CCCCCNC(=O)C(Cc1ccc(OC(COO)COO)cc1)NC(=O)C(Cc1ccc(OC)cc1)NC(=O)OC(C)(C)C (stereo not drawn)
[7]
  inhibition at 1 µM: 8%
[8]
  inhibition at 10 µM: 36%
[9]
  inhibition at 100 µM: 90%

## CC(C)(C)OC(=O)N[C@@H](Cc1ccccc1)C(=O)N[C@@H](Cc1ccc(OCC(=O)O)c(C(=O)O)c1)C(=O)NCCCO [Example 157-21, 5-{(2S)-2-({(2S)-2-[(tert-Butoxycarbonyl)amino]-3-phenylpropanoyl}amino)-3-[(3-hydroxypropyl)amino]-3-oxopropyl}-2-(carboxymethoxy)benzoic Acid]
[1]
  inhibition at 1 µM: 24%
[2]
  inhibition at 10 µM: 73%
[3]
  inhibition at 100 µM: 95%

## CCCCCNC(=O)[C@H](Cc1ccc(OC(C(=O)O)C(=O)O)cc1)NC(=O)C(CC(=O)O)CC(=O)O
[4]
  inhibition at 1 µM: 1%
[5]
  inhibition at 10 µM: 33%
[6]
  inhibition at 100 µM: 83%

## O=C(O)COc1ccc(C[C@H](NS(=O)(=O)/C=C/c2ccccc2)C(=O)NCCCCc2ccc(Cl)cc2)cc1C(=O)O [Example 156-7, 2-(carboxymethoxy)-5-[(2S)-3-{[4-(4-chlorophenyl)butyl]amino}-3-oxo-2-({[(E)-2-phenylethenyl]sulfonyl}amino)propyl]benzoic acid]
[1]
  inhibition at 1 µM: 18%
[2]
  inhibition at 10 µM: 69%
[3]
  inhibition at 100 µM: 95%

## NS(=O)(=O)c1ccc(CCNC(=O)C(Cc2ccc(OC(COO)COO)cc2)NC(=O)CCC(=O)O)cc1 (stereo not drawn)
[4]
  inhibition at 1 µM: 4%
[5]
  inhibition at 10 µM: 19%
[6]
  inhibition at 100 µM: 63%

## CCCCCNC(=O)C(Cc1ccc(OC(=CCOO)COO)cc1)NC(=O)CCC(=O)O (stereo not drawn)
[4]
  inhibition at 1 µM: 0%
[5]
  inhibition at 10 µM: 9%
[6]
  inhibition at 100 µM: 50%

## O=C(O)CCC(=O)N[C@@H](Cc1ccc(OC(C(=O)O)C(=O)O)cc1)C(=O)NCCN1CCCCC1
[4]
  inhibition at 1 µM: 0%
[5]
  inhibition at 10 µM: 2%
[6]
  inhibition at 100 µM: 23%

## CCCCCNC(=O)C(Cc1ccc(OC(COO)COO)cc1)NC(=O)[C@H](Cc1ccc(C(=O)c2ccccc2)cc1)NC(C)=O (stereo partly drawn)
[7]
  inhibition at 1 µM: 9%
[8]
  inhibition at 10 µM: 42%
[9]
  inhibition at 100 µM: 87%

## O=C(O)COc1ccc(C[C@H](NC(=O)c2ccoc2)C(=O)NCCCCc2ccccc2)cc1C(=O)O [Example 154-15, 2-(carboxymethoxy)-5-{(2S)-2-(3-furoylamino)-3-oxo-3-[(4-phenylbutyl)amino]propyl}benzoic acid]
[1]
  inhibition at 1 µM: 80%
[2]
  inhibition at 10 µM: 31%
[3]
  inhibition at 100 µM: 97%

## O=C(O)CCC(=O)NC(Cc1ccc(OC(COO)COO)cc1)C(=O)NCc1ccc(C(=O)O)cc1 (stereo not drawn)
[4]
  inhibition at 1 µM: 3%
[5]
  inhibition at 10 µM: 14%
[6]
  inhibition at 100 µM: 56%

## O=C(O)CCC(=O)NC(Cc1ccc(OC(COO)COO)cc1)C(=O)NCc1ccc(C(F)(F)F)cc1 (stereo not drawn)
[4]
  inhibition at 1 µM: 4%
[5]
  inhibition at 10 µM: 15%
[6]
  inhibition at 100 µM: 66%

## O=C(O)CCC(=O)NC(Cc1ccc(OC(COO)COO)cc1)C(=O)NCCCc1ccccc1 (stereo not drawn)
[4]
  inhibition at 1 µM: 8%
[5]
  inhibition at 10 µM: 23%
[6]
  inhibition at 100 µM: 72%

## CCCCCNC(=O)C(Cc1ccc(OC(COO)COO)cc1)NC(=O)NCCCCCC(=O)O (stereo not drawn)
[4]
  inhibition at 1 µM: 6%
[5]
  inhibition at 10 µM: 18%
[6]
  inhibition at 100 µM: 63%

## CCCCCNC(=O)[C@H](Cc1ccc(OC(C(=O)O)C(=O)O)cc1)NC(=O)[C@H](CCC(=O)O)NC(=O)CCC(=O)O
[4]
  inhibition at 1 µM: 25%
[5]
  inhibition at 10 µM: 76%
[6]
  inhibition at 100 µM: 96%

## CCCCCNC(=O)[C@H](Cc1ccc(OC(C(=O)O)C(=O)O)cc1)NC(=O)C(CC(=O)O)NC(=O)OCc1ccccc1 (stereo partly drawn)
[4]
  inhibition at 1 µM: 10%
[5]
  inhibition at 10 µM: 51%
[6]
  inhibition at 100 µM: 90%

## COc1ccc(CCCCNC(=O)[C@H](Cc2ccc(OCC(=O)O)c(C(=O)O)c2)NC(=O)c2ccc(Cl)nc2)cc1 [Example 154-34, 2-(carboxymethoxy)-5-((2S)-2-{[(6-chloro-3-pyridinyl)carbonyl]amino}-3-{[4-(4-methoxyphenyl)butyl]amino}-3-oxopropyl)benzoic acid]
[1]
  inhibition at 1 µM: 26%
[2]
  inhibition at 10 µM: 77%
[3]
  inhibition at 100 µM: 96%

## CCCCCNC(=O)[C@H](Cc1ccc(OC(C(=O)O)C(=O)O)cc1)NC(=O)C1CC1C(=O)O (stereo partly drawn)
[4]
  inhibition at 1 µM: 0%
[5]
  inhibition at 10 µM: 11%
[6]
  inhibition at 100 µM: 57%

## CCCCCCCCCCNC(=O)C(Cc1ccc(OC(COO)COO)cc1)NC(=O)CCC(=O)O (stereo not drawn)
[4]
  inhibition at 1 µM: 4%
[5]
  inhibition at 10 µM: 3%
[6]
  inhibition at 100 µM: 51%

## CCCCCNC(=O)C(Cc1ccc(OC(COO)COO)cc1)NC(=O)CCC(=O)O (stereo not drawn) [drawing 81]
Conc 1 uM, pNPP hydrolysis, Table 1
  PTP1 Inhib % Inhib: 1%
Conc 10 uM, pNPP hydrolysis, Table 1
  PTP1 Inhib % Inhib: 25%
Conc 100 uM, pNPP hydrolysis, Table 1
  PTP1 Inhib % Inhib: 81% and 76%

## O=C(O)COc1ccc(C[C@H](NC(=O)c2ccc(Cl)cc2)C(=O)NCCCCc2ccc(Cl)cc2)cc1C(=O)O [Example 154-20, 2-(carboxymethoxy)-5-((2S)-2-[(4-chlorobenzoyl)amino]-3-{[4-(4-chlorophenyl)butyl]amino}-3-oxopropyl)benzoic acid]
[1]
  inhibition at 1 µM: 27%
[2]
  inhibition at 10 µM: 79%
[3]
  inhibition at 100 µM: 98%

## O=C(O)CCC(=O)N[C@@H](Cc1ccc(OC(C(=O)O)C(=O)O)cc1)C(=O)NCCCN1CCOCC1
[4]
  inhibition at 1 µM: 0%
[5]
  inhibition at 10 µM: 6%
[6]
  inhibition at 100 µM: 35%

## CCCCCNC(=O)C(C)(Cc1ccc(OC(C(=O)O)C(=O)O)cc1)NC(=O)CCC(=O)O (stereo not drawn)
[7]
  inhibition at 1 µM: 3%
[8]
  inhibition at 10 µM: 6%
[9]
  inhibition at 100 µM: 34%

## CCCCCNC(=O)C(Cc1ccc(OC(C(=O)O)C(=O)O)c(F)c1)NC(=O)CCC(=O)O (stereo not drawn)
[7]
  inhibition at 1 µM: 4%
[8]
  inhibition at 10 µM: 29%
[9]
  inhibition at 100 µM: 78%

## O=C(O)CCC(=O)NC(Cc1ccc(OC(COO)COO)cc1)C(=O)NCCOc1ccccc1 (stereo not drawn)
[4]
  inhibition at 1 µM: 1%
[5]
  inhibition at 10 µM: 13%
[6]
  inhibition at 100 µM: 57%

## CCCCCNC(=O)[C@H](Cc1ccc(OCC(=O)O)c(C(=O)O)c1)NC(=O)c1cnc(Cl)c(Cl)c1 [Example 154-2, 2-(carboxymethoxy)-5-[(2S)-2-{[(5,6-dichloro-3-pyridinyl)carbonyl]amino}-3-oxo-3-(pentylamino)propyl]benzoic acid]
[1]
  inhibition at 1 µM: 23%
[2]
  inhibition at 10 µM: 72%
[3]
  inhibition at 100 µM: 95%

## CCCCCNC(=O)C(Cc1ccc(OC(COO)COO)cc1)NC(=O)N(CC(=O)O)Cc1ccc(OCc2ccccc2)cc1 (stereo not drawn)
[4]
  inhibition at 1 µM: 5%
[5]
  inhibition at 10 µM: 35%
[6]
  inhibition at 100 µM: 90%

## CC(C)(C)OC(=O)N[C@@H](Cc1ccccc1)C(=O)N[C@@H](Cc1ccc(OCC(=O)O)c(C(=O)O)c1)C(=O)NCCCc1ccccc1 [Example 157-1, 5-{(2S)-2-({(2S)-2-[(tert-Butoxycarbonyl)amino]-3-phenylpropanoyl}amino)-3-oxo-3-[(3-phenylpropyl)amino]propyl}-2-(carboxymethoxy)benzoic Acid]
[1]
  inhibition at 1 µM: 39%
[2]
  inhibition at 10 µM: 84%
[3]
  inhibition at 100 µM: 97%
